This is an account of results in patent US9872858B2, “Treatment of degenerations and light-induced damage to the retina” (BIOCODEX, priority 2014, dated 2018).

Like-named read-outs stand apart in the source and are kept apart here.

The subject of data set [1] is blue light-induced retinal degenerations or damages in rats. Kind of data set: Scotopic electroretinogram (amplitude of wave a) after blue light-induced retinal degeneration. The class given is in vivo, Sprague-Dawley albino male rats. The procedure:
This animal model is particularly representative, in addition to light-induced retinal damage, of age-related macular degeneration (AMD) and retinitis pigmentosa (see e.g Feng et al. (2012) International Journal of Ophthalmology 5:151-157).
72 Sprague-Dawley albino male rats obtained from Janvier were used for the study. When received, the rats were approximately 7 weeks old and weighed 180-200 g,
(§1) Induction was performed by exposure during 6 hours to a blue fluorescent light of 400 nm-540 nm wavelength in individual cages. The rats were kept in the dark for 36 hours prior to the induction and 24 hours after the induction, before returning to normal lighting conditions.
A scotopic electroretinogram (ERG) was performed by using the electrophysiological RETI-animal® (Roland Consult) system before the first administration (base) then on days 7 and 14 on both eyes of animals accustomed to the darkness. The animals were anesthetized with an intramuscular injection of a mixture of ketamine/xylazine. 15 minutes before the measurement, 1 drop of Mydriatictum® (0.5% tropicamide) was instilled to induce dilatation of the pupil. The amplitudes of wave a and wave b were measured for each eye and expressed as a percentage of the base amplitudes.
The ERG parameters are: • Gansfeld Q450C • Color: maximum white • Maximum intensity: 2.6 cd.s/m^2 (0 dB); duration: 0.24 ms; number of flashes: 1 • Filter: 50 Hz • Impedance threshold: 90 kΩ
A two-factor ANOVA test was applied to the average amplitudes of the wave a of both eyes for each measurement point. The effect of the products was determined using the Turkey's multiple comparison test; each group was compared to other groups. Differences were considered significant for p values less than 0.05.
Electroretinograms (ERG) allow to measure the amplitude of wave a, which results from the photo-activated hyperpolarization of photoreceptors. Thus, a reduction of the amplitude of wave a is an indicator of a retinal damage or degeneration associated with exposure to blue light.

A short description of data set [2]: Animals behavior and body weight. The format is in vivo, Sprague-Dawley albino male rats. The following applies: etifoxine 12.5-50 mg/kg i.p. once a day D-7 to D0. The source says:
The rats were kept under observation for 3 weeks after their arrival for acclimatization. Meanwhile the animals were observed daily for verifying the absence of a disease.
II.1. Animals Behavior and Body Weight

The test system of data set [3] is blue light-induced retinal degenerations or damages in rats. Kind of data set: Thickness of the outer nuclear layer (histology, AUC) after blue light-induced retinal degeneration. The format is in vivo, Sprague-Dawley albino male rats. The procedure: The inventors have studied the protective effect of etifoxine in respect of the blue light-induced retinal degenerations or damages in rats. This animal model is particularly representative, in addition to light-induced retinal damage, of age-related macular degeneration (AMD) and retinitis pigmentosa (see e.g Feng et al. (2012) International Journal of Ophthalmology 5:151-157).
as §1
After ERG (day 14), the animals were euthanized with an overdose of pentobarbital, according to European recommendations, both eyes were enucleated, fixed with Bouin Hollande solution and then included in paraffin. Sections of 5 to 7 μm of thickness were made along the vertical meridian then stained using Masson's trichrome. The vertical meridian includes the optic nerve. […] The area under the curve (AUC) was then calculated for each retina.
A one-factor ANOVA test was applied to the average AUCs of the thickness of the outer nuclear layer. The effect of the products was determined using a Turkey's multiple comparison test; each treated group was compared to vehicle group. Differences were considered significant for p values less than 0.05.
To determine if the treatment allows to preserve the structure of photoreceptors, the thickness of the outer nuclear layer was evaluated 14 days other exposure to blue light. The area under the curve (AUC) of the thickness of the outer nuclear layer was calculated for each eye and both AUCs were averaged for each rat.

The test system of data set [4] is patients suffering from neovascular (exudative) AMD. The following applies: cited from earlier work.
The test system of data set [5] is light-induced degeneration of the retina in rats. The following applies: intraperitoneal injection (Ranchon et al. 2001); cited from earlier work.

Regarding `CCNC1=Nc2ccc(Cl)cc2C(C)(c2ccccc2)O1.Cl` (centres unmarked) [EFX, 6-chloro-2-ethylamino-4-methyl-4-phenyl-4H-[3,1]benzoxazine hydrochloride], the “Protection of amplitude of wave a compared to the vehicle group” value in data set [1] (12.5, 25 and 50 mg/kg, day 7 p<0.0001 all doses, day 14 p=0,016 for 12.5 mg/kg, p<0.0001 for 25 and 50 mg/kg) was “significant dose-dependent protection”. For the same compound, the “Amplitude of wave a (mean ± standard deviation), Day 7” value in data set [1] (EFX 12.5 mg/kg i.p. once a day D-7 to D0, 7 days after induction) came to 136 ± 89 μV; in data set [1] (EFX 25 mg/kg i.p. once a day D-7 to D0, 7 days after induction) it was 210 ± 116 μV; in data set [1] (EFX 50 mg/kg i.p. once a day D-7 to D0, 7 days after induction) it was 260 ± 87 μV. Besides, the “Amplitude of wave a (mean ± standard deviation), Day 14” value in data set [1] (EFX 12.5 mg/kg i.p. once a day D-7 to D0, 14 days after induction) is on record as 134 ± 135 μV. Also, the “Clinical signs after administration” value in data set [2] is listed as “No unexpected clinical signs”. In addition, the “Thickness of the outer nuclear layer (AUC, mean of both eyes ± standard deviation)” value was 170 ± 72 (p = 0.04 comparing to vehicle group) μm × mm in data set [3] (EFX 12.5 mg/kg i.p. once a day D-7 to D0, 14 days after induction, p = 0.04 vs vehicle group); 200 ± 73 (p = 0.0002 comparing to vehicle group) μm × mm in data set [3] (EFX 25 mg/kg i.p. once a day D-7 to D0, 14 days after induction, p = 0.0002 vs vehicle group); 172 ± 61 (p = 0.035 comparing to vehicle group) μm × mm in data set [3] (EFX 50 mg/kg i.p. once a day D-7 to D0, 14 days after induction, p = 0.035 vs vehicle group). For the same compound, the “Protection of the outer nuclear layer from damages or degenerations induced by blue light, compared to the vehicle” value in data set [3] (regardless of the dose (12.5, 25, 50 mg/kg), 14 days after induction) is “protects significantly”.

Turning to “ranibizumab: a Fab fragment of an anti-VEGF-A monoclonal antibody”, the Visual acuity improvement entry was “+8.1 letters” in data set [4] (0.3 mg monthly intravitreal injections) and “+10.7 letters” in data set [4] (0.5 mg monthly intravitreal injections).

For the compound `CC(C)(C)[N+]([O-])=Cc1ccccc1` [PBN, Phenyl-N-tert-butylnitrone], the “Amplitude of wave a (mean ± standard deviation), Day 7” value in data set [1] (PBN 50 mg/kg i.p. at D0, 0.5 h before, 2 h and 4 h during and just after induction, 7 days after induction) came to 334 ± 137 μV. Moreover, in data set [1] (PBN 50 mg/kg i.p. at D0 around induction, 7 days after induction, percentage of base amplitude), the “Average relative amplitude of wave a, Day 7” value amounted to 71 ± 29%. In data set [1] (PBN 50 mg/kg i.p. at D0 around induction, 14 days after induction), the “Amplitude of wave a (mean ± standard deviation), Day 14” value is on record as 301 ± 187 μV. For the same compound, the “Average relative amplitude of wave a, Day 14” value in data set [1] (PBN 50 mg/kg i.p. at D0 around induction, 14 days after induction, percentage of base amplitude) is listed as 62 ± 38%. In addition, in data set [1] (PBN 50 mg/kg, days 7 and 14, p<0.0001), the “Amplitudes of wave a compared to the NaCl 0.9% group” value is on record as “significantly (p<0.0001) higher”. Further, the “Action in light-induced degeneration of the retina” value in data set [5] is reported as “protective action”. The “Thickness of the outer nuclear layer (AUC, mean of both eyes ± standard deviation)” value in data set [3] (PBN 50 mg/kg i.p. at D0 around induction, 14 days after induction, p < 0.0001 vs NaCl 0.9% group) is on record as 247 ± 44 (p < 0.0001 comparing to NaCl 0.9% group) μm × mm. Besides, the “Protection of the outer nuclear layer from damages or degenerations induced by blue light” value in data set [3] (PBN 50 mg/kg, positive control, in contrast to 0.9% NaCl) is “protects the outer nuclear layer”.
